{"source": "paper PMC2906235", "about": "(The Journal of organic chemistry, 2010)", "key": {"[1]": {"tested_on": "MOLM-13 acute myeloid leukemia cell line", "assay": "MOLM-13 cell growth inhibition assay", "type": "cell-based"}, "[2]": {"tested_on": "Kasumi-1 acute myeloid leukemia cell line", "assay": "Kasumi-1 cell growth inhibition assay", "type": "cell-based", "conditions": "read-out: Kasumi-1 IC50"}, "[3]": {"molecular_target": "recombinant human Hsp90 (Hsp90α) (Homo sapiens, UniProt P07900)", "assay": "Competitive binding to recombinant human Hsp90", "conditions": "relative to control 17-AAG"}, "[4]": {"tested_on": "oncostatin M signaling", "conditions": "cited from earlier work"}, "[5]": {"tested_on": "Hsp90 derived from MDA-MB-468 breast cancer cell lysate", "assay": "Competitive binding assay to Hsp90 from MDA-MB-468 breast cancer cell lysate"}, "[6]": {"tested_on": "human histiocytic lymphoma U-937", "conditions": "U-937 cells; cited from earlier work"}, "[7]": {"conditions": "read-out: MOLM-13 IC50, cell growth inhibition, MOLM-13"}}, "note": "Like-named read-outs stand apart in the source and are kept apart here."}
{"smiles": "C=CCNC1=C2C[C@@H](C)C[C@H](OC)[C@H](O)[C@@H](C)/C=C(\\C)[C@H](OC(N)=O)[C@@H](OC)/C=C\\C=C(/C)C(=O)NC(=CC1=O)C2=O", "note": "[17-AAG (4), 17-allylamino-17-demethoxygeldanamycin, reference compound]", "values": [{"measurement": "IC50", "setting": "[1]; [7]", "value": 90, "unit": "nM"}, {"measurement": "IC50", "setting": "[1]; read-out: MOLM-13 IC50, cell growth inhibition, MOLM-13, listed as 17-AAG 4", "value": "~90", "unit": "nM"}, {"measurement": "IC50", "setting": "[2]", "value": 480, "unit": "nM"}]}
{"smiles": "CO[C@H]1C[C@H](C)Cc2cc(O)cc(c2)NC(=O)/C(C)=C/CC[C@H](OC)[C@@H](OC(N)=O)/C(C)=C/[C@H](C)[C@H]1O", "note": "[autolytimycin (2), Autolytimycin]", "values": [{"measurement": "IC50", "setting": "[1]; [7]", "value": "~510", "unit": "nM"}, {"measurement": "IC50", "setting": "[1]; read-out: MOLM-13 IC50, cell growth inhibition, MOLM-13, listed as autolytimcyin (2)", "value": 510, "unit": "nM"}, {"measurement": "Fold higher Hsp90 affinity than 17-AAG", "setting": "[3]", "value": 4, "unit": "fold"}, {"measurement": "Fold higher Hsp90 affinity than 17-AAG", "setting": "[3]; listed as autolytimycin 2", "value": "about 4 fold"}, {"measurement": "IC50", "setting": "[2]", "value": 280, "unit": "nM"}, {"measurement": "Activity in cell based oncostatin M signaling assay", "setting": "[4]", "value": "exhibit activity"}]}
{"smiles": "COc1c(O)cc2cc1C[C@@H](C)C[C@H](OC)[C@H](O)[C@@H](C)/C=C(\\C)[C@H](OC(N)=O)[C@@H](OC)CC/C=C(\\C)C(=O)N2", "note": "[reblastatin (1), reblastatin]", "values": [{"measurement": "IC50", "setting": "[1]; Homo sapiens, MOLM-13, read-out: MOLM-13 IC50, cell growth inhibition, MOLM-13", "value": "~270", "unit": "nM"}, {"measurement": "Fold less active than 17-AAG", "setting": "[1]; MOLM-13 cell line", "value": 3, "unit": "fold"}, {"measurement": "Fold higher Hsp90 affinity than 17-AAG", "setting": "[3]", "value": 4, "unit": "fold"}, {"measurement": "Fold higher Hsp90 affinity than 17-AAG", "setting": "[3]; listed as reblastatin 1", "value": "about 4 fold"}, {"measurement": "IC50", "setting": "[4]; read-out: IC50, oncostatin M signaling assay, cell-based", "value": 160, "unit": "nM"}, {"measurement": "Competitive binding (nanomolar activity) to Hsp90", "setting": "[5]; Hsp90 from MDA-MB-468 breast cancer cell lysate", "value": 7.34, "unit": "nM"}, {"measurement": "Fold enhanced activity over geldanamycin", "setting": "[5]; MDA-MB-468 lysate competitive binding", "value": 4, "unit": "fold"}, {"measurement": "IC50, inhibition of proliferation", "setting": "[6]", "value": 0.43, "unit": "µg/mL"}]}
